According to a melting point compilation (Tetko et al.; mined from patent text by program, amines drawn as free bases though some values may be those of a salt):

Row | SMILES | melting point
1 | O=C(Nc1ccc(Cl)cc1)Nc1c(C(O)(C(F)(F)F)C(F)(F)F)ccc2ccccc12 | 210 to 212 °C
2 | CCNP(=O)(Cc1ccc(NC(=O)C2=Cc3cc(C4CCCCC4)ccc3CC2)cc1)NCC | 163 to 165 °C
3 | O=S(=O)(Nc1ccc2c(OCc3csc(-c4ccc(F)cc4F)n3)cccc2c1)C(F)(F)F | 191 to 192 °C
4 | O=C(Cc1ccc(Cl)cc1)N1CCC2(CC1)Cc1ccccc1O2 | 108 to 110 °C
5 | O=C(O)CCSC(=S)NCc1ccc(Cl)cc1 | 104 to 105 °C
6 | COCCOC(=O)C1=C(C)NC(C)=C(C(=O)OCC(F)(F)F)C1c1cccc([N+](=O)[O-])c1 (stereo not given) | 169 °C
7 | CCn1c2s[nH]c(=O)c2c(=O)c2cc(F)c(F)c(OC(F)F)c21 | 211 to 213 °C
8 | N#Cc1cccc(C(=O)NC2CCCNC(=O)C2)c1 (stereo not given) | 221 to 222 °C
9 | COC(=O)Cc1c(C(=O)OC)ccn1CCO | 52 to 54 °C
10 | CCc1ccc(C(=O)CCCSc2nnnn2C)cc1 | 68 to 69 °C
11 | Cc1nnc(-c2[nH]c3ccccc3c2Cl)o1 | 267 to 268 °C
12 | O=C(Nc1ccccc1C(=NC1CCN(Cc2ccccc2)CC1)c1ccccc1)C(Cl)(Cl)Cl | 151 to 152 °C
13 | COCCc1nc2c(N)nc3ccccc3c2n1CCCCCCCCNC(=O)c1ccccc1 | 133 to 138 °C
14 | CC(=O)NCc1cccc(Nc2nccc(-c3sc(-c4ncc(C(F)(F)F)cc4Cl)nc3C)n2)c1 | 217 to 218 °C
15 | Cc1ccc(C(=O)NCCc2ccccn2)c(Nc2ccc3[nH]ncc3c2)n1 | 98 to 99 °C
16 | O=C(Nc1ccc(F)cc1F)c1nccnc1Oc1cccc(C(F)(F)F)c1 | 107 to 109 °C
17 | CC1(C)CS(=O)(=O)CC(C)(C)N1Br | 150 °C
18 | Fc1ccc(-c2ccc3nnn(Cc4ccc5ncccc5c4)c3n2)cc1 | 153 to 156 °C
19 | O=C1c2ccccc2-c2c1c1ccccc1c(=O)n2CCCCCCNS(=O)(=O)c1ccc(Br)cc1 | 188 to 190 °C
20 | CCc1c(C=CC(=O)O)ccc2c1OCO2 | 204 °C
21 | CCOC(=O)C1CCc2scnc2C1=O (stereo not given) | 81 to 82 °C
22 | CCn1nc2c(N)nc3ccccc3c2c1CC1(F)CCN(C(C)=O)CC1 | 228 to 230 °C
23 | COc1ccc(N2CCN(c3c(C)c(C)c4c(c3C)C(c3ccco3)C(C)(C)O4)CC2)cc1 (stereo not given) | 110 to 111 °C
24 | S=c1nc2ccccn2c(=S)n1-c1ccccn1 | 107 to 109 °C
25 | O=C(CCC(NS(=O)(=O)c1ccc2oc3ccccc3c2c1)C(=O)O)NCCc1ccccc1 (stereo not given) | 197 to 201 °C

Row | SMILES | melting point
26 | COc1cc(COc2nn(-c3ccccc3)cc2/C=C/C(=O)O)ccc1OCc1nc(-c2ccco2)oc1C | 204 to 205 °C
27 | COC(c1ccccc1)c1cc(C(F)(F)F)nc2c(C(F)(F)F)cccc12 (stereo not given) | 115 to 117 °C
28 | CCCc1c(OCc2cccc(C(=O)O)c2)ccc(C(C)=O)c1O | 216 to 220 °C
29 | Oc1cccc(NCCc2ccccn2)c1 | 118 to 120 °C
30 | COC(=O)CCCCCOc1ccc(N=C=O)cc1 | 47 to 50 °C
31 | CCCCCc1c(CO)nc(C(C)C)c(CO)c1-c1ccc(F)cc1 | 135 to 136 °C
32 | Cc1nc(-c2ccc(O)cc2)cc(-c2cccc(Br)c2)c1C#N | 214 to 218 °C
33 | CCC(=O)OC1C(CO)OC(n2cnc3c(N)ncnc32)C1OC(=O)CC (stereo not given) | 172 to 173 °C
34 | O=C(NCCc1ccccc1Cl)c1c(Cl)ccc2nc(N3CCC(C(=O)O)CC3)ccc12 | 250 to 253 °C
35 | O=[N+]([O-])c1ccc(SCc2cnc3ccccn23)cc1 | 174 to 175 °C
36 | O=C1CCC(N2C(=O)c3ccccc3C2=O)c2ccsc21 (stereo not given) | 163 to 166 °C
37 | COC(=O)C(COc1ccc(Cl)cc1C#N)Oc1ccccc1Cl (stereo not given) | 105 °C
38 | Nc1nccnc1C(=O)NCCN1CCC(Nc2nc3ccccc3n2Cc2ccc(F)cc2)CC1 | 157 °C
39 | COCCNCCc1ccc(Nc2ncc3c(n2)-c2ccccc2C(c2ccccc2C(F)(F)F)C3)cc1 (stereo not given) | 61 to 62 °C
40 | Nc1cc(-c2c(-c3cccc(Cl)c3)nc3ccc(Cl)nn23)ccn1 | 268 to 269 °C
41 | Cc1ccc(S(=O)(=O)NCCCN(CCN(CCCNS(=O)(=O)c2ccc(C)cc2)S(=O)(=O)c2ccc(C)cc2)S(=O)(=O)c2ccc(C)cc2)cc1 | 141 to 142 °C
42 | CC(C)Cn1cnc2c(C(N)=O)nc3ccccc3c21 | 225 to 226 °C
43 | O=C(Nc1ccc(C[C@H](NS(=O)(=O)NCC2CCCCC2)C(=O)O)cc1)c1c(Cl)cncc1Cl | 196 °C
44 | COc1ccc(CC(C)CC(=O)O)c(C(C)C)c1OC (stereo not given) | 100 to 101 °C
45 | COc1cccc(CNC(=O)c2nc3scc(COc4ccc(C(=O)O)cc4)c3c(=O)[nH]2)c1 | 297 to 299 °C
46 | COc1ccc(-c2c(CO)c(C)nc3cc(OC)c(OC)cc23)cc1OC | 200 to 201 °C
47 | O=C(O)CCC(=O)c1c(-c2ccccc2)cc2ccccn12 | 131 to 133 °C
48 | O=C(c1ccc(F)cc1)N1CCN(S(=O)(=O)c2ccc(Nc3ccnc4cc(Cl)ccc34)cc2)CC1 | 235 to 237 °C
49 | Nc1cc(OC2CCNCC2)c(F)c2c1c(=O)c(C(=O)O)cn2C1CC1 | > 300 °C
50 | COc1ccc(-c2ccc3c(C(=O)O)cccc3c2)cc1C12CC3CC(CC(C3)C1)C2 | 222 °C
